Assays:
Format in all cases: cell-based, human
[1] = target: PPARγ LBD, sensor 110PPARγ_3GS_403 (UniProt P37231+P9WHJ3, V318L)
[2] = target: PPARγ LBD, sensor 110PPARγ383 (UniProt P37231+P9WHJ3, V318L)
[3] = target: PPARγ LBD, sensor 94PPARγ403 (UniProt P37231+P9WHJ3, V318L)
[4] = target: PPARγ LBD, sensor 94_1GS_PPARγ_1GS_403 (UniProt P37231+P9WHJ3, V318L)
[5] = target: PPARγ LBD, sensor 110PPARγ_3GS_383 (UniProt P37231+P9WHJ3, V318L)
[6] = target: PPARγ LBD, sensor 100PPARγ383 (UniProt P37231+P9WHJ3, V318L)
[7] = target: PPARγ LBD, sensor 110PPARγ393 (UniProt P37231+P9WHJ3, V318L)

Compound	EC50 [1]	effect on cell growth [2]	IC50 ([2]; read-out: IC50 for antagonism)	effect on cell growth [3]	EC50 [4]	effect on cell growth [5]	effect on cell growth [6]	effect on cell growth [7]	EC50 [2]	effect on cell growth [4]
O=C(Nc1ccccc1)c1cc([N+](=O)[O-])ccc1Cl [GW9662]	1100 ± 200 nM	inhibited cell growth	1800 ± 1200 nM	strong positive responses	500 ± 100 nM	weak positive response	inhibitory effect	increased cell growth substantially	–	–
CCCCC/C=C/C=C1/C(=O)C=C[C@@H]1C/C=C\CCCC(=O)O [15D-PGJ2, 15-deoxy-Δ^12,14-Prostaglandin J2]	could not be calculated	didn't induce a significant cell growth signal	–	–	–	–	significant response	almost no effect	could not be calculated	strongest observed response
C[C@]12CC[C@@H]3c4ccc(O)cc4CC[C@H]3[C@@H]1CC[C@@H]2O [E2, 17β-estradiol]	–	no significant effect	–	–	–	–	–	–	–	–
